Reference: ChEMBL document CHEMBL2401661, “Cyanidin, a natural flavonoid, is an agonistic ligand for liver X receptor alpha and beta and reduces cellular lipid accumulation in macrophages and hepatocytes” (Bioorg Med Chem Lett, 2013)
pEC50, pKd: −log10 of the molar value. Calls of active or inactive are those of the source. The calls are words filed in the database; no cut-off is given here.

Experiments:
[1] = molecular target: T1, Oxysterols receptor LXR-beta (Homo sapiens, UniProt P55055); assay: Agonist activity at human LXRbeta-LBD assessed as recruitment of co-activator peptide after 2 hrs by TR-FRET assay
T1 sequence (P55055 whole entry, the tested form may be a part): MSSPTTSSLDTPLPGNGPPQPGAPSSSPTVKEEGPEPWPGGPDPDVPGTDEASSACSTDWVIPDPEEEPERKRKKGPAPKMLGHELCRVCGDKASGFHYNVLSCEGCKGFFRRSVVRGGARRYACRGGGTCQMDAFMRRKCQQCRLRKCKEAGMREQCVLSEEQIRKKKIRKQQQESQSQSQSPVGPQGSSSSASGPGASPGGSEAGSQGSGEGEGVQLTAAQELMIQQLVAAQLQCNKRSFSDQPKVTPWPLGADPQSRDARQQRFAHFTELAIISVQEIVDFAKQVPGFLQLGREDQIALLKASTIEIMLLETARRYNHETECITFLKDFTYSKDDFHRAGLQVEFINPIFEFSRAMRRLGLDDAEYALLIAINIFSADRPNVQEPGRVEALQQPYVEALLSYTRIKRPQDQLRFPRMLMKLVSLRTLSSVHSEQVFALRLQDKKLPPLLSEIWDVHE

[2] = molecular target: T2, Oxysterols receptor LXR-alpha (Homo sapiens) (UniProt Q13133); assay: (§1) Agonist activity at human LXRalpha-LBD assessed as recruitment of co-activator peptide after 2 hrs by TR-FRET assay
T2 sequence (whole entry): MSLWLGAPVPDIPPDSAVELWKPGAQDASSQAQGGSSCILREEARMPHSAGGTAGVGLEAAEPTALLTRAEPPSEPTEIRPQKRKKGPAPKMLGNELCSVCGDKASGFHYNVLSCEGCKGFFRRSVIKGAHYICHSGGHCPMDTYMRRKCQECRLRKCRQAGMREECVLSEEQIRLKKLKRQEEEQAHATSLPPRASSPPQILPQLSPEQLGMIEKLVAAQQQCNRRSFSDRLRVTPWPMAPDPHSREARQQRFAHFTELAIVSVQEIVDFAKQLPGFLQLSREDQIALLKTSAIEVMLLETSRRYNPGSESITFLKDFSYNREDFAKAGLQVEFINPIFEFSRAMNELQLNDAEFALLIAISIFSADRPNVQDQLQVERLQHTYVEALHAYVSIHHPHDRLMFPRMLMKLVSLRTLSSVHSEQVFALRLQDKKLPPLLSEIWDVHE

[3] = molecular target: T2, Oxysterols receptor LXR-alpha (Homo sapiens); assay: (§2) Binding affinity to human LXRalpha-LBD by surface plasmon resonance
[4] = molecular target: T1, Oxysterols receptor LXR-beta; assay: Binding affinity to human LXRbeta-LBD by surface plasmon resonance
[5] = molecular target: T3, Liver X receptor (Homo sapiens) (UniProt Q13133+P55055); assay: Agonist activity at LXR in human HepG2 cells assessed as reduction in cellular triglyceride at 100 uM after 24 hrs; format: cell-based; parameters: scale not given: the % may be the effect or the level left
T3 sequence (P55055 whole entry, looked up, one chain of several): as the sequence (P55055 whole entry, the tested form may be a part) above

[6] = molecular target: T3, Liver X receptor (Homo sapiens); assay: Agonist activity at LXR in human THP1 cells assessed as reduction in cellular triglyceride at 100 uM after 24 hrs; format: cell-based; parameters: scale not given: the % may be the effect or the level left; settings: THP-1
[7] = molecular target: T3, Liver X receptor (Homo sapiens); assay: Agonist activity at LXR in human HepG2 cells assessed as reduction in cellular triglyceride after 24 hrs; format: cell-based
[8] = molecular target: T3, Liver X receptor (Homo sapiens); assay: Agonist activity at LXR in human HepG2 cells assessed as reduction in cellular cholesterol after 24 hrs; format: cell-based
[9] = molecular target: T3, Liver X receptor (Homo sapiens); assay: Agonist activity at LXR in human THP1 cells assessed as reduction in cellular cholesterol after 24 hrs; format: cell-based; settings: THP-1
[10] = molecular target: T3, Liver X receptor (Homo sapiens); assay: Agonist activity at LXR in human THP1 cells assessed as reduction in cellular triglyceride after 24 hrs; format: cell-based; settings: THP-1
[11] = molecular target: T3, Liver X receptor (Homo sapiens); assay: Agonist activity at LXR in human HepG2 cells assessed as upregulation of ABCG5 expression at 100 uM after 24 hrs by RT-qPCR analysis relative to control; format: cell-based
[12] = molecular target: T3, Liver X receptor (Homo sapiens); assay: Agonist activity at LXR in human HepG2 cells assessed as upregulation of SREBP1C expression at 100 uM after 24 hrs by RT-qPCR analysis relative to control; format: cell-based
[13] = molecular target: T3, Liver X receptor (Homo sapiens); assay: Agonist activity at LXR in human HepG2 cells assessed as upregulation of ABCA1 expression at 100 uM after 24 hrs by RT-qPCR analysis relative to control; format: cell-based
[14] = molecular target: T1, Oxysterols receptor LXR-beta; assay: Agonist activity at LXRbeta in human HepG2 cells assessed as LXRbeta transcription at 50 to 100 uM after 24 hrs by RT-qPCR analysis; format: cell-based
[15] = molecular target: T2, Oxysterols receptor LXR-alpha (Homo sapiens); assay: Induction of LXRalpha transcription in human HepG2 cells at 50 to 100 uM after 24 hrs by RT-qPCR analysis relative to control; format: cell-based
[16] = molecular target: T4, Oxysterols receptor LXR-alpha (Homo sapiens, UniProt Q13133); assay: as §1
T4 sequence (Q13133 whole entry): T2 sequence (whole entry)

[17] = molecular target: T1, Oxysterols receptor LXR-beta; assay: Agonist activity at LXRbeta (unknown origin) expressed in CHOK1 cells assessed as induction of transactivation activity at 100 uM after 24 hrs by luciferase reporter gene assay relative to control; format: cell-based; settings: CHO-K1
[18] = molecular target: T4, Oxysterols receptor LXR-alpha; assay: as §2
[19] = molecular target: T2, Oxysterols receptor LXR-alpha (Homo sapiens); assay: Agonist activity at LXRalpha (unknown origin) expressed in CHOK1 cells assessed as induction of transactivation activity at 100 uM after 24 hrs by luciferase reporter gene assay relative to control; format: cell-based; settings: CHO-K1
[20] = molecular target: T2, Oxysterols receptor LXR-alpha (Homo sapiens); assay: Agonist activity at LXRalpha (unknown origin) expressed in CHOK1 cells assessed as induction of transactivation activity at 50 uM after 24 hrs by luciferase reporter gene assay relative to control; format: cell-based; settings: CHO-K1

SMILES: O=C(O)c1ccc(O)c(O)c1
- Activity [1]: inactive
- Activity [2]: inactive
- Activity [3]: inactive
- Activity [4]: inactive

SMILES: Oc1cc(O)c2cc(O)c(-c3ccc(O)c(O)c3)[o+]c2c1 [CYANIDIN]
- Activity [5]: -23%
- Activity [6]: -21%
- Activity [7]: Dose-dependent effect
- Activity [8]: Dose-dependent effect
- Activity [9]: Dose-dependent effect
- Activity [10]: Dose-dependent effect
- fold change (FC) [11]: 1.4
- fold change (FC) [12]: 3.6
- fold change (FC) [13]: 2.5
- Activity [14]: inactive
- fold change (FC) [15]: 1.5
- pEC50 [1]: 3.90
- pEC50 [16]: 5.46
- Activity [17]: 33%
- pKd [18]: 5.66
- pKd [4]: 4.14
- Activity [19]: 59%
- Activity [20]: 32%

SMILES: O=Cc1c(O)cc(O)cc1O
- Activity [1]: inactive
- Activity [2]: inactive
- Activity [3]: inactive
- Activity [4]: inactive

SMILES: CC(C)CC[C@@H](O)[C@@H](C)[C@H]1CC[C@H]2[C@@H]3CC=C4C[C@@H](O)CC[C@]4(C)[C@H]3CC[C@]12C [22(R)-HYDROXYCHOLESTEROL]
- pEC50 [16]: 6.00
